Reference: patent publication US20100009949A1, “NOVEL METHOD” (BioXell S.p.A., priority 2001, published 2010)

Key:
DU145 cells [1] = assay: Cell proliferation assay (cell counting), DU145; format: cell-based, human
Procedure: (§1) Cell proliferation assay: All proliferation tests were performed after 24 h of cell starvation in phenol red- and serum-free medium containing 0.1% BSA. After starvation, cells were incubated in the same medium as before, with or without specific stimuli. Thereafter, cells were trypsinized, and each experimental point was derived from counting in the hemocytometer and then averaging at least six different fields for each well as previously reported (Crescioli et al. 2003). Experiments were performed seeding 4×10^4 cells onto 12-well plates in growth medium and incubated for 48 h with: 1) increasing concentrations of 1-alpha-fluoro-25-hydroxy-16,23E-diene-26,27-bishomo-20-epi-cholecalciferol (1×10^−12, 1×10^−11, 1×10^−10, 1×10^−9, 1×10^−8 M) with or without fixed concentration of KGF (10 ng/ml) or fixed concentration of bFGF (10 ng/ml); 2) fixed concentration of LY 294002 (10 nM) with or without KGF (10 ng/ml). In the same experiment each experimental point was repeated in triplicate and experiments were performed at least three times. Cell growth results are expressed as the percentage of growth compared with their relative controls.
Statistical analysis: All the data are shown as mean±SEM of the indicated number of experiments. Statistical analysis was performed with ANOVA and Student's T test for unpaired and, when applicable, for paired data. IC50 for dose response curves were calculated using the program ALLFIT.

PC3 cells = assay: Cell proliferation assay (cell counting), PC3; format: cell-based, human; conditions: control 100±17
Procedure: as §1

DU145 cells [2] = assay: Annexin-V binding assay (phosphatidylserine exposure, apoptosis); format: cell-based, human; conditions: DU145, 8 hours, 1×10^−8 M; control 57±1.7; n=6, p=0.017
Procedure: Annexin-V binding assay. Annexin-V binding assay was used to detect translocation of membrane phosphatidylserine (PS) from the inner to the outer side of the plasma membrane, since the exposure of PS is considered an early sign of apoptosis (Kagan et al. 2000). The assay was performed by using the “Annexin-V-Fluos staining Kit” (Roche). Before treatment, cells (1×10^6) were kept in serum-free medium for at least 24 h, then cells were incubated for 8 hours in the presence or absence of Compound 1 (1×10^−8 M), cells (1×10^6) were washed, trypsinized, centrifuged. After two washed in PBS, cells were resuspended in 100 ul of incubation buffer (supplied by manufacturer), 2 ul of Annexin-V-Fluos labeling reagent (Ann-V-F, Annexin-V conjugated to fluorescein, supplied at the 200× concentration by Roche) and 2 ul of propidium iodide solution (PI, 30 ug/ml in PBS) were added. After incubation (15 minutes in the dark at room temperature) samples were analyzed by flow cytometry. For each experimental set, two cell suspensions were prepared for instrumental setting and data analysis: 1) by omitting both Ann-V-F and PI staining (nonspecific fluorescence sample), and 2) by omitting only the PI staining (sample for compensation, see below). […] Fluorescence compensation was set by acquiring […] labeled with only Ann-V-F. For each sample 10.000 events were recorded at flow rate of 200/300 cells/s. […]

DU145 cells [3] = assay: Matrigel invasion assay (Boyden chambers), DU145; format: cell-based, human; conditions: 1×10^−8 M, KGF 10 ng/ml, 24 h, no pre-incubation
Procedure: Invasion assay: Invasion assays were performed as described previously (Bonaccorsi et al. 2000 and 2004a and 2004b) according to Albini et al. (1987) using the Boyden chambers equipped with 8 um porosity polyvinylpyrrolidone-free polycarbonate filters (VWR International, Milan, Italy). A thin layer of Matrigel solution (50 ug/ml) was overlaid on the upper surface of the filter and allowed to gel by incubating the filters at 37° C. for 30 min. Cell ability to invade the substrate was assessed by using some different stimuli: keratinocyte growth factor, KGF (10 ng/ml), in presence or in absence of the inhibitor, 1-alpha-fluoro-25-hydroxy-16,23E-diene-26,27-bishomo-20-epi-cholecalciferol (1×10^−8 M). These molecules were added to the bottom well of the Boyden chambers. 9.5×10^4 cells were then added to the top of the chambers and incubated for 24 h at 37° C. Migrated cells were quantitated by counting cells with a Zeiss microscope (Oberkochen, Germany) equipped with brightfield optics (40× magnification). Results are expressed as the percentage of number of migrated cells per high-power field respect to control.

KGF receptor (KGFR) = assay: KGF-induced KGFR autotransphosphorylation (immunoprecipitation, Western blot) in DU145 cells; format: cell-based, human
Procedure: (§2) Immunoprecipitation and Western blot analysis. Protein extraction and immunoprecipitation were performed as previously described (Bonaccorsi et al. 1997). Briefly, cells were scraped in PBS supplemented with 1 mM Na3VO4, centrifuged and resuspended in lysis buffer (20 mM Tris, pH 7.4, 150 mM NaCl, 0.25% NP-40, 1 mM Na3VO4, 1 mM phenylmethyl-sulfonyl fluoride (PMSF)). After protein measurement (Coomassie kit), aliquots of cell lysates containing equal amount of proteins (500 ug) were incubated for 1 hour with 30 ul of Protein A (or Protein G)-Sepharose for preclearing. Precleared lysates were then incubated for 1 hour using 5 ug of specific anti-KGFR antibodies on ice followed by overnight incubation at 4° C. with 30 ul of Protein A (or Protein G)-Sepharose. The immunobeads were washed three times in lysis buffer and then resuspended in 10 ul of 2× Laemmli's reducing sample buffer (62.5 mM Tris pH 6.8, 10% glycerol, 2% SDS, 2.5% pyronin and 200 mM dithiothreitol), boiled at 95° C. for 5 minutes and loaded onto 8% polyacrylamide-bisacrylamide gels. […]

PI3K = PI3K assay (immunokinase) after KGF stimulation of DU145 cells; format: cell-based, human; conditions: DU145, 1×10^−8 M, KGF 10 ng/ml
Procedure: PI3K assay: PI3K activity was evaluated in vitro assay as previously described (Luconi et al. 2004). Briefly, cells were stimulated with KGF (5 min) in the presence or absence of 1-alpha-fluoro-25-hydroxy-16,23E-diene-26,27-bishomo-20-epi-cholecalciferol, scraped in PBS supplemented with 1 mM Na3VO4, centrifuged and extracted with lysis buffer (20 mM Tris, pH 7.4, 137 mM NaCl, 1 mM CaCl2, 1 mM MgCl2, 1% NP-40, 1 mM Na3VO4, 1 mM PMSF). After measurement of proteins, the aliquots of cell extracts containing equivalent amount of proteins (500 ug) were incubated for 1 hour with 50 ul of Protein G-Sepharose for preclearing. Precleared lysates were then incubated with an antiphosphotyrosine PY20 antibody overnight at 4° C. with 50 ul of Protein G-Sepharose as described above. The Sepharose beads were washed two times with lysis buffer and twice with a 10 mM Tris-HCl (pH 7.4) containing 0.1 mM EGTA and 5 mM LiCl. After removal of the last wash, the beads were suspended in kinase buffer (10 mM Tris-HCl, 150 mM NaCl, 5 mM EDTA) containing 20 ug of L-alpha-phosphatidylinositol, 25 mM MgCl2 and 10 uCi of [gamma-^32P]ATP, and incubated for 20 min at room temperature. The reaction was stopped by the addition of 60 ul of HCl 6M and 160 ul of a mixture of chloroform and methanol (1:1). […] Quantifications of the bands was performed using a Kodak image analysis system.

AKT = AKT serine phosphorylation (Western blot) in KGF-stimulated DU145 cells; format: cell-based, human; conditions: DU145, 1×10^−8 M, KGF 10 ng/ml
Procedure: as §2

human BPH cells = conditions: primary cultures of human BPH cells; Crescioli et al. 2004; cited from earlier work
prostate [4] = conditions: intact and castrated, testosterone-replaced rats; Crescioli et al. 2004; cited from earlier work
prostate [5] = conditions: phase II clinical trials for BPH, preliminary results (Montorsi, 2005); cited from earlier work

C=C1/C(=C\C=C2/CCC[C@]3(C)C([C@@H](C)C/C=C/C(O)(CC)CC)=CC[C@@H]23)C[C@@H](O)C[C@@H]1F [Compound 1, 1-alpha-fluoro-25-hydroxy-16,23E-diene-26,27-bishomo-20-epi-cholecalciferol]
percentage number of cells, bFGF + Compound 1 (DU145 cells [1]; DU145, bFGF 10 ng/ml + Compound 1 1×10^−8 M, control 100±8.6): 74.1±9.2 percentage
IC50 (DU145 cells [1]; Homo sapiens, DU-145, basal, 48 h, cell counting, read-out: IC50 of inhibition of basal DU145 cell proliferation): 0.0221 ± 0.0191 nM
Inhibition of KGF-stimulated DU145 proliferation (DU145 cells [1]; KGF 10 ng/ml, 48 h, increasing concentrations of the analogue): completely and dose-dependently inhibits proliferation
percentage number of cells, KGF + Compound 1 (PC3 cells; PC3, KGF 10 ng/ml + Compound 1 1×10^−8 M): 69.9±9.9 percentage
percentage Annexin-V positive live cells (DU145 cells [2]): 62±1.2 percentage
Effect on KGF-stimulated Matrigel invasion of DU145 cells (DU145 cells [3]): completely inhibited
Effect on KGF-induced autotransphosphorylation of KGFR (KGF receptor (KGFR); DU145, 5 minutes pre-incubation, 1×10^−8 M, KGF 10 ng/ml): abrogated
Inhibitory effect on KGFR autophosphorylation after alpha-amanitin (KGF receptor (KGFR); DU145, after 4 hours incubation with 4 ug/ml alpha-amanitin): still present
Effect on KGF-stimulated PI3K activity (PI3K): inhibited the stimulatory effect of KGF on PI3K activity
Effect on KGF-stimulated AKT serine phosphorylation (AKT): inhibited KGF-stimulated AKT serine phosphorylation
Effect on prostate cell proliferation in vitro (human BPH cells): decrease prostate cell proliferation
Effect on prostate growth in vivo (prostate [4]): inhibition of prostate growth
Prostate volume compared to placebo (prostate [5]): significant reduction of prostate volume

bFGF: growth factor used as stimulus of DU145 proliferation (10 ng/ml)
percentage number of cells, bFGF alone (DU145 cells [1]; DU145, bFGF 10 ng/ml, control 100±8.6): 138±19.5 percentage

B1: KGF: Keratinocyte growth factor, stimulus, obtained from Prepro Tech EC (protein, UniProt P21781 32-194, looked up)
Fibroblast growth factor 7: CNDMTPEQMATNVNCSSPERHTRSYDYMEGGDIRVRRLFCRTQWYLRIDKRGKVKGTQEMKNNYNIMEIRTVAVGIVAIKGVESEFYLAMNKEGKLYAKKECNEDCNFKELILENHYNTYASAKWTHNGGEMFVALNQKGIPVRGKKTKKEQKTAHFLPMAIT
percentage number of cells, KGF alone (PC3 cells; PC3, KGF 10 ng/ml): 121.3±13 percentage
